Measurements reported in BindingDB's records for doi:10.1016/j.bmcl.2010.10.034 (Bristol-Myers Squibb Research and Development, 2010).

Target: cAMP-dependent protein kinase catalytic subunit beta (Homo sapiens) (UniProt P22694)
Test: Inhibition of PKAbeta

Structure (SMILES): Cc1ccc(C(=O)Nc2ccon2)cc1NC(=O)c1cnn(-c2ccccc2F)c1N [5-amino-1-(2-fluorophenyl)-N-(5-(isoxazol-3-ylcarbamoyl)-2-methylphenyl)-1H-pyrazole-4-carboxamide]
- IC50: > 40 µM
